A short description of this series: recombinant barcode read abundance after kanamycin selection (control-corrected) (log10(CPM+1)); higher = more efficient recombination; sequences stand for … in AGTGCAGAGAAAATCGGCCAGTTTTCTCTGCCTGCAGTCCGCATGCCGT…AGATTTATGCAGCGGACTGCCTTTCTCCCAAAGTGATAAACCGGACAGTATCATGGACCGGTTTTCCCGGTAATCCGTATTTGCAAGGTTGGTTTCACT; site = the 11-nt target. The method in brief: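 Targets were screened in pooled form in E. coli against IS621 bridge RNA target-binding loops. Recombination efficiency is based on barcode counts at recombinant junctions in counts per million, averaged and corrected for the control. Numbers are shown as log10(CPM+1), with duplicate plates on chloramphenicol/ampicillin LB agar (control) or chloramphenicol/ampicillin/kanamycin with 0.1 mM IPTG.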
“CTGAGCCCTTGGGTTCTAACCTGTTGCAT (site CTGAGCCCTAT)”: the “recombinant barcode read abundance (log10)” value was 1.09.

As to “CTGAGGACTTGGGTTCTAACCTGTTGCCT (site ATGAGGACTAG)”, the “recombinant barcode read abundance (log10)” value worked out at 0.0813.

For “CTGAGGACTTGGGTTCTAACCTGTTGCCT (site CTGAGGACTAG)”, the “recombinant barcode read abundance (log10)” value was found to be 1.29.

Turning to “CTGAGGACTTGGGTTCTAACCTGTTGCCT (site GTGAGGACTAG)”, the “recombinant barcode read abundance (log10)” value came to 0.0454.

On to “CTGAGGACTTGGGTTCTAACCTGTTGCCT (site TTGAGGACTAG)”, for which the “recombinant barcode read abundance (log10)” value was 0.325.

Take “CTGATCACTTGGGTTCTAACCTGTTGCCT (site CTGATAACTAG)”: the “recombinant barcode read abundance (log10)” value is 0.0217.

For the sequence “CTGATCACTTGGGTTCTAACCTGTTGCCT (site CTGATCACTAG)”, the “recombinant barcode read abundance (log10)” value amounted to 1.03.

As for “CTGATCACTTGGGTTCTAACCTGTTGCCT (site CTGATGACTAG)”, the “recombinant barcode read abundance (log10)” value came to 0.0708.

Take “CTGATCACTTGGGTTCTAACCTGTTGCCT (site CTGATTACTAG)”: the “recombinant barcode read abundance (log10)” value is 0.202.

For “CTGCACCCTTGGGTTCTAACCTGTTGCAG (site CTGCACCCTCT)”, the “recombinant barcode read abundance (log10)” value was 0.477.

Take “CTGCACCCTTGGGTTCTAACCTGTTGCAG (site GCGCACCCTCT)”: the “recombinant barcode read abundance (log10)” value was 0.0743.

For the sequence “CTGCATACTTGGGTTCTAACCTGTTGCCT (site CAGCATACTAG)”, the “recombinant barcode read abundance (log10)” value stood at 0.17.

As to “CTGCATACTTGGGTTCTAACCTGTTGCCT (site CCGCATACTAG)”, the “recombinant barcode read abundance (log10)” value amounted to 0.217.

With “CTGCATACTTGGGTTCTAACCTGTTGCCT (site CGGCATACTAG)”, the “recombinant barcode read abundance (log10)” value amounted to 0.0131.

As to “CTGCATACTTGGGTTCTAACCTGTTGCCT (site CTGCATACTAG)”, the “recombinant barcode read abundance (log10)” value came to 0.86.

For the sequence “CTGCGCCCTTGGGTTCTAACCTGTTGCCT (site CTGAGCCCTAG)”, the “recombinant barcode read abundance (log10)” value is 0.0517.

For “CTGCGCCCTTGGGTTCTAACCTGTTGCCT (site CTGCGCCCTAG)”, the “recombinant barcode read abundance (log10)” value was found to be 1.1.

For the sequence “CTGCGCCCTTGGGTTCTAACCTGTTGCCT (site CTGGGCCCTAG)”, the “recombinant barcode read abundance (log10)” value is 0.249.

“CTGCGCCCTTGGGTTCTAACCTGTTGCCT (site CTGTGCCCTAG)”: the “recombinant barcode read abundance (log10)” value came out at 0.567.

As to “CTGCGTGCTTGGGTTCTAACCTGTTGCCT (site CAGCGTGCTAG)”, the “recombinant barcode read abundance (log10)” value was 0.503.

On to “CTGCGTGCTTGGGTTCTAACCTGTTGCCT (site CCGCGTGCTAG)”, for which the “recombinant barcode read abundance (log10)” value came out at 0.909.

Take “CTGCGTGCTTGGGTTCTAACCTGTTGCCT (site CGGCGTGCTAG)”: the “recombinant barcode read abundance (log10)” value came to 0.176.

“CTGCGTGCTTGGGTTCTAACCTGTTGCCT (site CTGCGTGCTAG)”: the “recombinant barcode read abundance (log10)” value is 0.83.

As for “CTGCTACCTTGGGTTCTAACCTGTTGCCT (site CAGCTACCTAG)”, the “recombinant barcode read abundance (log10)” value worked out at 0.706.

For “CTGCTACCTTGGGTTCTAACCTGTTGCCT (site CCGCTACCTAG)”, the “recombinant barcode read abundance (log10)” value came to 0.386.

As for “CTGCTACCTTGGGTTCTAACCTGTTGCCT (site CGGCTACCTAG)”, the “recombinant barcode read abundance (log10)” value came out at 0.0908.

In the case of “CTGCTACCTTGGGTTCTAACCTGTTGCCT (site CTGCTACCTAG)”, the “recombinant barcode read abundance (log10)” value is 1.13.

Regarding “CTGCTAGCTTGGGTTCTAACCTGTTGCAG (site CTGCTAGCTCT)”, the “recombinant barcode read abundance (log10)” value stood at 1.08.

As to “CTGCTAGCTTGGGTTCTAACCTGTTGCAG (site GACAGGCCTAC)”, the “recombinant barcode read abundance (log10)” value is 0.289.

For the sequence “CTGGAACCTTGGGTTCTAACCTGTTGCGG (site CTAGAAGCTCC)”, the “recombinant barcode read abundance (log10)” value amounted to 0.

With “CTGGAACCTTGGGTTCTAACCTGTTGCGG (site CTGGAACCTCC)”, the “recombinant barcode read abundance (log10)” value is 1.25.

In the case of “CTGGAGTCTTGGGTTCTAACCTGTTGCCT (site CTGGAGTCTAG)”, the “recombinant barcode read abundance (log10)” value is 2.33.

For “CTGGAGTCTTGGGTTCTAACCTGTTGCCT (site CTGGCGTCTAG)”, the “recombinant barcode read abundance (log10)” value was found to be 0.322.

Take “CTGGAGTCTTGGGTTCTAACCTGTTGCCT (site CTGGGGTCTAG)”: the “recombinant barcode read abundance (log10)” value stood at 0.412.

For “CTGGAGTCTTGGGTTCTAACCTGTTGCCT (site CTGGTGTCTAG)”, the “recombinant barcode read abundance (log10)” value turned out to be 0.793.

As to “CTGGTATCTTGGGTTCTAACCTGTTGCTT (site CTGGTATCTAA)”, the “recombinant barcode read abundance (log10)” value came to 0.509.

On to “CTGGTATCTTGGGTTCTAACCTGTTGCTT (site GGCTACCCTTT)”, for which the “recombinant barcode read abundance (log10)” value is 0.0591.

Turning to “CTGGTGTCTTGGGTTCTAACCTGTTGCCT (site CTGGAGTCTAG)”, the “recombinant barcode read abundance (log10)” value was 0.0957.

For “CTGGTGTCTTGGGTTCTAACCTGTTGCCT (site CTGGCGTCTAG)”, the “recombinant barcode read abundance (log10)” value was determined as 0.248.

“CTGGTGTCTTGGGTTCTAACCTGTTGCCT (site CTGGGGTCTAG)”: the “recombinant barcode read abundance (log10)” value was 0.0939.

Take “CTGGTGTCTTGGGTTCTAACCTGTTGCCT (site CTGGTGTCTAG)”: the “recombinant barcode read abundance (log10)” value amounted to 2.42.

Consider “CTGTATACTTGGGTTCTAACCTGTTGCCA (site CTATATACTTG)”, for which the “recombinant barcode read abundance (log10)” value is 0.113.

For “CTGTATACTTGGGTTCTAACCTGTTGCCA (site CTGTATACTTG)”, the “recombinant barcode read abundance (log10)” value was 0.175.

With “CTGTCGCCTTGGGTTCTAACCTGTTGCCT (site CTATCGCCTAG)”, the “recombinant barcode read abundance (log10)” value was 0.699.

“CTGTCGCCTTGGGTTCTAACCTGTTGCCT (site CTCTCGCCTAG)”: the “recombinant barcode read abundance (log10)” value is 0.0526.

“CTGTCGCCTTGGGTTCTAACCTGTTGCCT (site CTGTCGCCTAG)”: the “recombinant barcode read abundance (log10)” value was determined as 0.276.

“CTGTCGCCTTGGGTTCTAACCTGTTGCCT (site CTTTCGCCTAG)”: the “recombinant barcode read abundance (log10)” value is 0.0305.

For “CTGTCTCCTTGGGTTCTAACCTGTTGCCT (site ATGTCTCCTAG)”, the “recombinant barcode read abundance (log10)” value is 0.221.

For “CTGTCTCCTTGGGTTCTAACCTGTTGCCT (site CTGTCTCCTAG)”, the “recombinant barcode read abundance (log10)” value amounted to 1.29.

“CTGTCTCCTTGGGTTCTAACCTGTTGCCT (site GTGTCTCCTAG)”: the “recombinant barcode read abundance (log10)” value is 0.0715.

As to “CTGTCTCCTTGGGTTCTAACCTGTTGCCT (site TTGTCTCCTAG)”, the “recombinant barcode read abundance (log10)” value was 0.3.

For “CTGTGAACTTGGGTTCTAACCTGTTGCCT (site CAGTGAACTAG)”, the “recombinant barcode read abundance (log10)” value was 0.128.

As to “CTGTGAACTTGGGTTCTAACCTGTTGCCT (site CCGTGAACTAG)”, the “recombinant barcode read abundance (log10)” value turned out to be 0.133.

“CTGTGAACTTGGGTTCTAACCTGTTGCCT (site CGGTGAACTAG)”: the “recombinant barcode read abundance (log10)” value came to 0.216.

Regarding “CTGTGAACTTGGGTTCTAACCTGTTGCCT (site CTGTGAACTAG)”, the “recombinant barcode read abundance (log10)” value was 0.679.

Turning to “CTGTGCCCTTGGGTTCTAACCTGTTGCCT (site CTGAGCCCTAG)”, the “recombinant barcode read abundance (log10)” value is 0.105.

With “CTGTGCCCTTGGGTTCTAACCTGTTGCCT (site CTGCGCCCTAG)”, the “recombinant barcode read abundance (log10)” value was determined as 0.0771.

In the case of “CTGTGCCCTTGGGTTCTAACCTGTTGCCT (site CTGGGCCCTAG)”, the “recombinant barcode read abundance (log10)” value was 0.0673.

“CTGTGCCCTTGGGTTCTAACCTGTTGCCT (site CTGTGCCCTAG)”: the “recombinant barcode read abundance (log10)” value is 0.574.

Turning to “CTGTTCCCTTGGGTTCTAACCTGTTGCGG (site CTGATCCCTCC)”, the “recombinant barcode read abundance (log10)” value was 0.291.

“CTGTTCCCTTGGGTTCTAACCTGTTGCGG (site CTGCTCCCTCC)”: the “recombinant barcode read abundance (log10)” value is 0.797.

Turning to “CTGTTCCCTTGGGTTCTAACCTGTTGCGG (site CTGGTCCCTCC)”, the “recombinant barcode read abundance (log10)” value came to 0.129.

Take “CTGTTCCCTTGGGTTCTAACCTGTTGCGG (site CTGTTCCCTCC)”: the “recombinant barcode read abundance (log10)” value came out at 1.05.

In the case of “CTTACGGCTTGGGTTCTAACCTGTTGCCT (site CTTACAGCTAG)”, the “recombinant barcode read abundance (log10)” value came to 0.186.

For the sequence “CTTACGGCTTGGGTTCTAACCTGTTGCCT (site CTTACCGCTAG)”, the “recombinant barcode read abundance (log10)” value was 0.196.

As to “CTTACGGCTTGGGTTCTAACCTGTTGCCT (site CTTACGGCTAG)”, the “recombinant barcode read abundance (log10)” value is 0.0569.

On to “CTTACGGCTTGGGTTCTAACCTGTTGCCT (site CTTACTGCTAG)”, for which the “recombinant barcode read abundance (log10)” value was found to be 0.262.

For “CTTCATCCTTGGGTTCTAACCTGTTGCCT (site CTTCAACCTAG)”, the “recombinant barcode read abundance (log10)” value came out at 0.0199.

On to “CTTCATCCTTGGGTTCTAACCTGTTGCCT (site CTTCACCCTAG)”, for which the “recombinant barcode read abundance (log10)” value came out at 0.34.

For “CTTCATCCTTGGGTTCTAACCTGTTGCCT (site CTTCAGCCTAG)”, the “recombinant barcode read abundance (log10)” value was determined as 0.0613.

Consider “CTTCATCCTTGGGTTCTAACCTGTTGCCT (site CTTCATCCTAG)”, for which the “recombinant barcode read abundance (log10)” value is 0.466.

For the sequence “CTTCGGACTTGGGTTCTAACCTGTTGCTT (site CTTCGGACTAA)”, the “recombinant barcode read abundance (log10)” value came out at 0.769.

Consider “CTTCGGACTTGGGTTCTAACCTGTTGCTT (site GAGTCTCCTCC)”, for which the “recombinant barcode read abundance (log10)” value was 0.133.

Take “CTTCGGGCTTGGGTTCTAACCTGTTGCAA (site CTTCGGACTTT)”: the “recombinant barcode read abundance (log10)” value was 0.217.

For the sequence “CTTCGGGCTTGGGTTCTAACCTGTTGCAA (site CTTCGGGCTTT)”, the “recombinant barcode read abundance (log10)” value is 0.915.

“CTTCGTCCTTGGGTTCTAACCTGTTGCGT (site CTTCGTCCTAA)”: the “recombinant barcode read abundance (log10)” value is 0.102.

As to “CTTCGTCCTTGGGTTCTAACCTGTTGCGT (site CTTCGTCCTAC)”, the “recombinant barcode read abundance (log10)” value worked out at 1.59.

(Values after the supplement of paper PMC11208160.)
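Note: IS621 recombinase and bridge RNA in Escherichia coli cells.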
